Values of other authors in patent US6251886A, “Methods of using temozolomide in the treatment of cancers” (priority 1999, dated 2001).
“Also recorded” adds a separate entry of the source. Read-outs that look alike come from different tables or passages of the source.

Columns and labels:
[1] = test system: leptomeningeal medulloblastoma and pineoblastoma; conditions: i.t., Phase I
[2] = test system: Mer- human MG xenograft
[3] = test system: D456-MG human glioma xenograft
[4] = oral therapy
[5] = test system: murine tumors; conditions: mouse, in vivo
[6] = common, but tolerable
[7] = test system: human CNS xenografts; conditions: s.c. in athymic nude mice
[8] = known property
[9] = test system: advanced melanoma; conditions: Phase II, 60 patients with advanced melanoma
[10] = systemic temozolomide, rat
[11] = systemic temozolomide, Rhesus monkeys
[12] = test system: advanced melanoma; conditions: Phase I, patients with advanced melanoma
[13] = not given; remark: listed apart in the source
[14] = clinical trials
[15] = test system: brain tumors; conditions: clinical trials, vs adjuvant BCNU
[16] = Phase I, single-dose i.v. and oral

## N[C@@H](Cc1ccc(N(CCCl)CCCl)cc1)C(=O)O [melphalan]
[1]
  activity in patients: activity has been seen in patients with leptomeningeal medulloblastoma and pineoblastoma

## Cn1nnc2c(C(N)=O)ncn2c1=O [microcrystalline temozolomide]
[2]
  sensitivity to BCNU: BCNU-sensitive
[3]
  resistance of D456 to BCNU: BCNU-resistant

## Cn1nnc2c(C(N)=O)ncn2c1=O [temozolomide, 3,4-dihydro-3-methyl-4-oxoimidazo-[5,1-d]-1,2,3,4-tetrazin-8-carboximide]
[4]
  peak serum concentrations: approximately 10 mg/L
[5]
  activity against murine tumors: activity against a spectrum of murine tumors
[6]
  side effect: nausea and vomiting
[7]
  activity against human CNS xenografts: activity of temozolomide against a series of human CNS xenografts
Phase I and II, five-day regimen
  dose-limiting toxicity: dose-limiting myelosuppression; also recorded: dose-limiting stem cell toxicity
Phase I and II, five-day regimen, including high-grade glioma
  anti-neoplastic activity: intriguing anti-neoplastic activity
[16]
  antineoplastic activity: trivial antineoplastic activity
  dose-limiting toxicity: dose-limiting myelosuppression
[8]
  solubility (in words): marked insolubility; also recorded: poor solubility
[9]
  clinical response: 21%
[10]
  penetration into the CSF (CSF to plasma AUC zero to infinity ratio): 41% to 44
[11]
  penetration into the CSF (CSF to plasma AUC zero to infinity ratio): 29.8%
[12]
  clinical responses: 17%
[13]
  effective concentration in vitro: 0.1 mM

## NC(=O)c1ncn2c(=O)n(CCCl)nnc12 [mitozolomide]
[14]
  thrombocytopenia: severe and unpredictable thrombocytopenia

## CNNCc1ccc(C(=O)NC(C)C)cc1 [procarbazine]
[15]
  activity against brain tumors: results comparable to adjuvant BCNU

## O=NN(CCCl)C(=O)NCCCl [BCNU, 1,3-bis(2-chloroethyl)-1-nitrosourea]
[3]
  resistance of D456 to BCNU: resistant
